Test results reported in patent publication US20260199484A1, “PROTAC DEGRADERS OF MLLT1 AND/OR MLLT3” (DARK BLUE THERAPEUTICS LTD, priority 2024, published 2026).

Assays:
MV4-11 cells = assay: MV4-11 cellular proliferative assay, Assay Format B (CTG 2.0, 168 h); format: cell-based; details: Homo sapiens, Assay format B, 168 h, read-out: IC50 (MV4-11 cellular proliferative assay)
Protocol: MV4-11 cells at a confluency of ~50-80% was used for cell growth assay. 600 cells/well in a 384-well opaque cell culture plate (6007680; Perkin Elmer) were seeded in 40 μL of complete medium (IMDM+10% FBS+1× Penicillin-Streptomycin). Cells were incubated overnight at 37° C., 5% CO2. 10 mM DMSO stocks were prepared, cells were treated with 10 concentrations of test compounds starting from 1 uM or 100 nM, 3-fold dilution in 10 uL (5× concentration) of complete medium. Final DMSO concentration was 0.3%. Culture plates were centrifuged at 40×g, 30s. Cells were incubated with compounds for 168 h (7 days). After 7 days, 20 uL CTG 2.0 reagent (G9242; Promega) was added per well and luminescence reading was taken in Envision Xcite 2105 multimode plate reader. Data was analyzed in GraphPad Prism 10.0 and data was shown as % viability with respect to DMSO control and dose-response curves were generated using four parameter logistic regression. Assay quality was determined by z-factor calculation using positive and negative controls.

MLLT1 = target: T1, MLLT1 (Homo sapiens, UniProt Q03111); assay: MLLT1 degradation assay in MV4-11 cells (JESS, 24 h); format: cell-based; parameters: endogenous in cells; host or cells: MV4-11 (ATCC CRL-9591); details: vs DMSO control
T1 sequence (Q03111 1-559): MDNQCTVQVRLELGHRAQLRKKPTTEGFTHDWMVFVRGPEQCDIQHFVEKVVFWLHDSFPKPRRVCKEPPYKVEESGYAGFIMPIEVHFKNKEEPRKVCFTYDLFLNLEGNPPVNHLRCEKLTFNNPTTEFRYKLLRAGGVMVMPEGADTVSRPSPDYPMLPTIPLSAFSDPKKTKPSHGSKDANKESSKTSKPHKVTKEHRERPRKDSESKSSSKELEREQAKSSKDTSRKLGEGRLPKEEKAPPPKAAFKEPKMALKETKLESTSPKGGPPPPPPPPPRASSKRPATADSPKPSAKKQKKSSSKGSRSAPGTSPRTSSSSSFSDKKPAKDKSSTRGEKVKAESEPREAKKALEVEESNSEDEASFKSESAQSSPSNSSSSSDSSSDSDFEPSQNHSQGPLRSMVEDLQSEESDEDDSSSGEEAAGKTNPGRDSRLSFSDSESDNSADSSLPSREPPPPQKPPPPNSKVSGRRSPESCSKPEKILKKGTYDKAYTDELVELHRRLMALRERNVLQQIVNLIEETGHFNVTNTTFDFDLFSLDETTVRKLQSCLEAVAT
How it was run: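 MV4-11 cells treated at 1000, 100 and 10 nM (0.1% DMSO) for 24 h at 37° C; lysates (4 ug protein) run on JESS capillary immunoassay with MLLT1 and GAPDH antibodies. Peak areas give % degradation versus DMSO, binned A (≥75%) to D (<25%).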

Structure (SMILES)	IC50 (MV4-11 cells)	MLLT1% Degradation @ 0.01 μM (MLLT1)	MLLT1% Degradation @ 0.1 μM (MLLT1)	MLLT1% Degradation @ 1 μM (MLLT1)
Cc1nn(C2CCC(CCCC#Cc3cccc4c3CN(C3CCC(=O)NC3=O)C4=O)CC2)c2cc(C(=O)Nc3cc4[nH]c([C@H]5CCCN5C)cc4cn3)ccc12 (stereo partly drawn) [Example 74, 1-(4-(5-(2-(2,6-dioxopiperidin-3-yl)-1-oxoisoindolin-4-yl)pent-4-yn-1-yl)cyclohexyl)-3-methyl-N-(2-((R)-1-methylpyrrolidin-2-yl)-1H-pyrrolo[3,2-c]pyridin-6-yl)-1H-indazole-6-carboxamide]	< 100 nM	B (Category B: 50%≤B<75% degradation)	B (Category B: 50%≤B<75% degradation)	A (Category A: A≥75% degradation)
Cc1nn(CCCCCCCC#Cc2cccc3c2CN(C2CCC(=O)NC2=O)C3=O)c2cc(C(=O)Nc3cc4[nH]c([C@H]5CCCN5C)c(Cl)c4cn3)ccc12 (stereo partly drawn) [Example 53, N-(3-chloro-2-((R)-1-methylpyrrolidin-2-yl)-1H-pyrrolo[3,2-c]pyridin-6-yl)-1-(9-(2-(2,6-dioxopiperidin-3-yl)-1-oxoisoindolin-4-yl)non-8-yn-1-yl)-3-methyl-1H-indazole-6-carboxamide]	< 100 nM	A (Category A: A≥75% degradation)	A (Category A: A≥75% degradation)	A (Category A: A≥75% degradation)
Cc1nn(CCCCCC2CCN(c3cccc4c3CN(C3CCC(=O)NC3=O)C4=O)CC2)c2cc(C(=O)Nc3cc4[nH]c([C@H]5CCCN5C)cc4cn3)ccc12 (stereo partly drawn) [Example 105, 1-(5-(1-(2-(2,6-dioxopiperidin-3-yl)-1-oxoisoindolin-4-yl)piperidin-4-yl)pentyl)-3-methyl-N-(2-((R)-1-methylpyrrolidin-2-yl)-1H-pyrrolo[3,2-c]pyridin-6-yl)-1H-indazole-6-carboxamide]	< 100 nM	B (Category B: 50%≤B<75% degradation)	A (Category A: A≥75% degradation)	A (Category A: A≥75% degradation)
Cc1nn(CCCCCCCC#Cc2cccc3c2CN([C@@H]2CCC(=O)NC2=O)C3=O)c2cc(C(=O)Nc3cc4[nH]c([C@H]5CCCN5C)cc4cn3)c(F)cc12 (relative stereo) [Example 103, 1-(9-(2-((rel-R)-2,6-dioxopiperidin-3-yl)-1-oxoisoindolin-4-yl)non-8-yn-1-yl)-5-fluoro-3-methyl-N-(2-((R)-1-methylpyrrolidin-2-yl)-1H-pyrrolo[3,2-c]pyridin-6-yl)-1H-indazole-6-carboxamide]	< 100 nM	A (Category A: A≥75% degradation)	A (Category A: A≥75% degradation)	A (Category A: A≥75% degradation)
Cc1nn(CC2CCN(c3ccc4c(c3)C(=O)N(C3CCC(=O)NC3=O)C4=O)CC2)c2cc(C(=O)Nc3cc4[nH]c([C@H]5CCCN5C)cc4cn3)ccc12 (stereo partly drawn) [Example 104, 1-((1-(2-(2,6-dioxopiperidin-3-yl)-1,3-dioxoisoindolin-5-yl)piperidin-4-yl)methyl)-3-methyl-N-(2-((R)-1-methylpyrrolidin-2-yl)-1H-pyrrolo[3,2-c]pyridin-6-yl)-1H-indazole-6-carboxamide]	< 100 nM	B (Category B: 50%≤B<75% degradation)	A (Category A: A≥75% degradation)	C (Category C: 25%≤C<50% degradation)
Cc1nn(CCCCCCCC#Cc2cccc3c2CN([C@@H]2CCC(=O)NC2=O)C3=O)c2cc(C(=O)Nc3cc4[nH]c([C@H]5CCCN5C)c(Cl)c4cn3)ccc12 (relative stereo) [Example 101, N-(3-chloro-2-((R)-1-methylpyrrolidin-2-yl)-1H-pyrrolo[3,2-c]pyridin-6-yl)-1-(9-(2-((rel-R)-2,6-dioxopiperidin-3-yl)-1-oxoisoindolin-4-yl)non-8-yn-1-yl)-3-methyl-1H-indazole-6-carboxamide]	< 100 nM			

Second part, the compound after the results:

IC50 (MV4-11 cells)	MLLT1% Degradation @ 0.01 μM (MLLT1)	MLLT1% Degradation @ 0.1 μM (MLLT1)	MLLT1% Degradation @ 1 μM (MLLT1)	Structure (SMILES)
< 100 nM	A (Category A: A≥75% degradation)	A (Category A: A≥75% degradation)	A (Category A: A≥75% degradation)	CN1CCC[C@@H]1c1cc2cnc(NC(=O)c3ccc4c(C5CC5)nn(CCCCCCCC#Cc5cccc6c5CN(C5CCC(=O)NC5=O)C6=O)c4c3)cc2[nH]1 (stereo partly drawn) [Example 59, 3-cyclopropyl-1-(9-(2-(2,6-dioxopiperidin-3-yl)-1-oxoisoindolin-4-yl)non-8-yn-1-yl)-N-(2-((R)-1-methylpyrrolidin-2-yl)-1H-pyrrolo [3,2-c]pyridin-6-yl)-1H-indazole-6-carboxamide]
< 100 nM	A (Category A: A≥75% degradation)	A (Category A: A≥75% degradation)	A (Category A: A≥75% degradation)	Cc1nn(CCCCCCCC#Cc2cccc3c2CN([C@H]2CCC(=O)NC2=O)C3=O)c2cc(C(=O)Nc3cc4[nH]c([C@H]5CCCN5C)cc4cn3)c(F)cc12 (relative stereo) [Example 102, 1-(9-(2-((rel-S)-2,6-dioxopiperidin-3-yl)-1-oxoisoindolin-4-yl)non-8-yn-1-yl)-5-fluoro-3-methyl-N-(2-((R)-1-methylpyrrolidin-2-yl)-1H-pyrrolo[3,2-c]pyridin-6-yl)-1H-indazole-6-carboxamide]
< 100 nM				Cc1nn(CCCCCCCC#Cc2cccc3c2CN([C@H]2CCC(=O)NC2=O)C3=O)c2cc(C(=O)Nc3cc4[nH]c([C@H]5CCCN5C)c(Cl)c4cn3)ccc12 (relative stereo) [Example 100, N-(3-chloro-2-((R)-1-methylpyrrolidin-2-yl)-1H-pyrrolo[3,2-c]pyridin-6-yl)-1-(9-(2-((rel-S)-2,6-dioxopiperidin-3-yl)-1-oxoisoindolin-4-yl)non-8-yn-1-yl)-3-methyl-1H-indazole-6-carboxamide]
< 100 nM	A (Category A: A≥75% degradation)	A (Category A: A≥75% degradation)	A (Category A: A≥75% degradation)	Cc1nn(CC2CCN(c3cccc4c3CN(C3CCC(=O)NC3=O)C4=O)CC2)c2cc(C(=O)Nc3cc4[nH]c([C@H]5CCCN5C)cc4cn3)ccc12 (stereo partly drawn) [Example 106, 1-((1-(2-(2,6-dioxopiperidin-3-yl)-1-oxoisoindolin-4-yl)piperidin-4-yl)methyl)-3-methyl-N-(2-((R)-1-methylpyrrolidin-2-yl)-1H-pyrrolo[3,2-c]pyridin-6-yl)-1H-indazole-6-carboxamide]
< 100 nM	A (Category A: A≥75% degradation)	A (Category A: A≥75% degradation)	A (Category A: A≥75% degradation)	Cc1nn(C2CCN(CC3CCN(c4cc5c(cc4F)C(=O)N(C4CCC(=O)NC4=O)C5=O)CC3)CC2)c2cc(C(=O)Nc3cc4[nH]c([C@H]5CCCN5C)cc4cn3)ccc12 (stereo partly drawn) [Example 69, 1-(1-((1-(2-(2,6-dioxopiperidin-3-yl)-6-fluoro-1,3-dioxoisoindolin-5-yl)piperidin-4-yl)methyl)piperidin-4-yl)-3-methyl-N-(2-((R)-1-methylpyrrolidin-2-yl)-1H-pyrrolo[3,2-c]pyridin-6-yl)-1H-indazole-6-carboxamide]
